From article PMC6149898, “GPCR Modulation of Thieno[2,3-b]pyridine Anti-Proliferative Agents” (Molecules : A Journal of Synthetic Chemistry and Natural …, 2017)

What was measured:
RE:A498 = system: RE:A498; parameters: method as in earlier work; details: NCI-60 panel; ref [4],[5],[6],[7]; cited from earlier work
LC:HOP-92 = system: LC:HOP-92; parameters: method as in earlier work; details: NCI-60 panel; ref [4],[5],[6],[7]; cited from earlier work
CNS:SNB-19 = system: CNS:SNB-19; parameters: method as in earlier work; details: NCI-60 panel; ref [4],[5],[6],[7]; cited from earlier work
CCR10 = CCR10 (Homo sapiens, UniProt P46092); experiment: gpcrMAX PathHunter beta-arrestin
Sequence of CCR10 (P46092 whole entry): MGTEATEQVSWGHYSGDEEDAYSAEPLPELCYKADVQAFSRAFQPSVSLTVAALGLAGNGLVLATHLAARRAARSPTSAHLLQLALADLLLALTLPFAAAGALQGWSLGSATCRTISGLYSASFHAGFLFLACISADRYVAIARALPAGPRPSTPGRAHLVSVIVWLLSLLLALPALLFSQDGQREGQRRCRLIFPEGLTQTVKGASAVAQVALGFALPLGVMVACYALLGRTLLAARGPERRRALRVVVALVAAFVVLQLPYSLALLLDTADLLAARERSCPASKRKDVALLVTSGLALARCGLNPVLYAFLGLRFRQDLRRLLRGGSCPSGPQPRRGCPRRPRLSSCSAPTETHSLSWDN

GIPR = GIPR (Homo sapiens, UniProt P48546); experiment: gpcrMAX PathHunter beta-arrestin
Sequence of GIPR (P48546 22-466): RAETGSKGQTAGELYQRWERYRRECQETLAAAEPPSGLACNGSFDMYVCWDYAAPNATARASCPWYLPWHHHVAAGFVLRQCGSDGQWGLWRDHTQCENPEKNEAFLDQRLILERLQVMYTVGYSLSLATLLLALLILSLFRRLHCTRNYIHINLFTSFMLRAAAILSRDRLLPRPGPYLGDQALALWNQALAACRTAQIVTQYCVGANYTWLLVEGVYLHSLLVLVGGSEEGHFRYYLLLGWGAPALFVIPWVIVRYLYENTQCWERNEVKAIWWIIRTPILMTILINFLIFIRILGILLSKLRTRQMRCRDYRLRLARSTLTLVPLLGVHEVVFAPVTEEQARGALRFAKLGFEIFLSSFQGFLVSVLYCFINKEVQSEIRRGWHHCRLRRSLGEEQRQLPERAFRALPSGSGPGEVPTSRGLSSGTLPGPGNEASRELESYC

CX3CR1 = CX3CR1 (Homo sapiens, UniProt P49238); experiment: gpcrMAX PathHunter beta-arrestin
FPR1 = FPR1 (Homo sapiens, UniProt P21462); experiment: gpcrMAX PathHunter beta-arrestin
UTR2 = UTR2 (Homo sapiens, UniProt Q9UKP6); experiment: gpcrMAX PathHunter beta-arrestin
GPR109A = GPR109A (Homo sapiens, UniProt Q8TDS4); experiment: gpcrMAX PathHunter beta-arrestin
Sequence of GPR109A (Q8TDS4 whole entry): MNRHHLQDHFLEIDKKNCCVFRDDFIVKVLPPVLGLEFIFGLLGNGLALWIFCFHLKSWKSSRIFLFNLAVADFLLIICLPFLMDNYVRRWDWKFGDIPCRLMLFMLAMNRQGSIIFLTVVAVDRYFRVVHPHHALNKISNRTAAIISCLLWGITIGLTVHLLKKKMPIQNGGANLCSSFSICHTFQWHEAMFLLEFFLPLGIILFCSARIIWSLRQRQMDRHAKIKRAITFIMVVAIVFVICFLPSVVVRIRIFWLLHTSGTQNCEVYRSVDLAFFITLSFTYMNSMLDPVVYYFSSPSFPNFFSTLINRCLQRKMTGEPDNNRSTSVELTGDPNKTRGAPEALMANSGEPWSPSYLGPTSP

CCR5 = CCR5 (Homo sapiens, UniProt P51681); experiment: gpcrMAX PathHunter beta-arrestin
Sequence of CCR5 (P51681 whole entry): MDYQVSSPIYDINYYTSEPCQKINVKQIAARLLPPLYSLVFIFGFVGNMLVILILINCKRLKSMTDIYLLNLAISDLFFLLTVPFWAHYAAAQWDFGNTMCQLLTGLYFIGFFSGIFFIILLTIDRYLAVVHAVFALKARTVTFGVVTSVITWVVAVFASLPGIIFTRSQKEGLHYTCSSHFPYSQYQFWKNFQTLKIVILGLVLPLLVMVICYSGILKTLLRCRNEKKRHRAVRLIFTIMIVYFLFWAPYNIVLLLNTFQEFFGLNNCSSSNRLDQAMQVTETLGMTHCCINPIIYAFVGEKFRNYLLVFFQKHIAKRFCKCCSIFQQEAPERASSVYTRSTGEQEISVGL

NPY2R = NPY2R (Homo sapiens, UniProt P49146); experiment: gpcrMAX PathHunter beta-arrestin
CO:HCC-2998 = system: CO:HCC-2998; parameters: method as in earlier work; details: NCI-60 panel; ref [4],[5],[6],[7]; cited from earlier work
LC:NCI-H23 = system: LC:NCI-H23; parameters: method as in earlier work; details: NCI-60 panel; ref [4],[5],[6],[7]; cited from earlier work
CALCRL-RAMP2 = CALCRL-RAMP2 (Homo sapiens, UniProt O60895+Q16602); experiment: gpcrMAX PathHunter beta-arrestin
Sequence of CALCRL-RAMP2 (Q16602 23-461): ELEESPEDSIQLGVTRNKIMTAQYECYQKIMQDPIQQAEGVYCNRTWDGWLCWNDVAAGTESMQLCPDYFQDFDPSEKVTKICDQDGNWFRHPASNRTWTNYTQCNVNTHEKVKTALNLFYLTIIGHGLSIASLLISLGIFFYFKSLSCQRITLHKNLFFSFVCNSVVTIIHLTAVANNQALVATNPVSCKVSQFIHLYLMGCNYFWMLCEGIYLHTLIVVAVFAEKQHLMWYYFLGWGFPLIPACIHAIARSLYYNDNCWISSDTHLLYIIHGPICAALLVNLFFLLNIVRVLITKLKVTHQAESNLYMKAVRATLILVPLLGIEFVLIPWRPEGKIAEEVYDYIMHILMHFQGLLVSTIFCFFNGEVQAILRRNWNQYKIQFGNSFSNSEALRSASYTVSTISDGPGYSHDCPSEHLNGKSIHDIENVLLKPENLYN
Sequence of CALCRL-RAMP2 (O60895 43-175 partner): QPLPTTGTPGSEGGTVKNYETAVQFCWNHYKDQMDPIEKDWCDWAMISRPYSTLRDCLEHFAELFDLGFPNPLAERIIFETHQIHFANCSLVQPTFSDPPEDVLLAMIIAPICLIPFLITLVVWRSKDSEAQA
CNS:SF-268 = system: CNS:SF-268; parameters: method as in earlier work; details: NCI-60 panel; ref [4],[5],[6],[7]; cited from earlier work
DRD3 = DRD3 (Homo sapiens, UniProt P35462); experiment: gpcrMAX PathHunter beta-arrestin
ADRA1B = ADRA1B (Homo sapiens, UniProt P35368); experiment: gpcrMAX PathHunter beta-arrestin
CO:HT29 = system: CO:HT29; parameters: method as in earlier work; details: NCI-60 panel; ref [4],[5],[6],[7]; cited from earlier work
MLNR = MLNR (Homo sapiens, UniProt O43193); experiment: gpcrMAX PathHunter beta-arrestin
NMBR = NMBR (Homo sapiens, UniProt P28336); experiment: gpcrMAX PathHunter beta-arrestin
Sequence of NMBR (P28336 whole entry): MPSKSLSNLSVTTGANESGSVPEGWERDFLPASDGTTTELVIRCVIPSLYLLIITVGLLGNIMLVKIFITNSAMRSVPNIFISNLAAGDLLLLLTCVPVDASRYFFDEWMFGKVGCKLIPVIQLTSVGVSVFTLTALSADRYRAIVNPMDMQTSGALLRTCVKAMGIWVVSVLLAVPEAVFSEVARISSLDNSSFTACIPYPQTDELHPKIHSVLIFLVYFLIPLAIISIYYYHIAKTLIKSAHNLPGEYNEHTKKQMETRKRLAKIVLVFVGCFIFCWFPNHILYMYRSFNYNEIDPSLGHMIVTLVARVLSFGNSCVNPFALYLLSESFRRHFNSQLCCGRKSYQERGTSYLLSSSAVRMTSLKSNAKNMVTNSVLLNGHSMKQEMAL

OPRL1 = OPRL1 (Homo sapiens, UniProt P41146); experiment: gpcrMAX PathHunter beta-arrestin
DRD1 = DRD1 (Homo sapiens, UniProt P21728); experiment: gpcrMAX PathHunter beta-arrestin
GALR2 = GALR2 (Homo sapiens, UniProt O43603); experiment: gpcrMAX PathHunter beta-arrestin
Sequence of GALR2 (O43603 whole entry): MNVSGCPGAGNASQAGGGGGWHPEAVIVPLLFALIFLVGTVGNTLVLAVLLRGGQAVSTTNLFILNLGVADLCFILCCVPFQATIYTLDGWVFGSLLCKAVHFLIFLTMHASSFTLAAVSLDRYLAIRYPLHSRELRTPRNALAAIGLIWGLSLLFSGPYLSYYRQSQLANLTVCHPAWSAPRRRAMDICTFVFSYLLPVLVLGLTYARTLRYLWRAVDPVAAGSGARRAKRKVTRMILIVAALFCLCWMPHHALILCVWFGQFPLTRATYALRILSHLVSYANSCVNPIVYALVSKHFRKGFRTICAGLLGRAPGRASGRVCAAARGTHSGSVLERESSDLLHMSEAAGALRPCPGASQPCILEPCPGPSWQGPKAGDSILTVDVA

EDG4 = EDG4 (Homo sapiens, UniProt Q9HBW0); experiment: gpcrMAX PathHunter beta-arrestin
C5AR1 = C5AR1 (Homo sapiens, UniProt P21730); experiment: gpcrMAX PathHunter beta-arrestin
Sequence of C5AR1 (P21730 whole entry): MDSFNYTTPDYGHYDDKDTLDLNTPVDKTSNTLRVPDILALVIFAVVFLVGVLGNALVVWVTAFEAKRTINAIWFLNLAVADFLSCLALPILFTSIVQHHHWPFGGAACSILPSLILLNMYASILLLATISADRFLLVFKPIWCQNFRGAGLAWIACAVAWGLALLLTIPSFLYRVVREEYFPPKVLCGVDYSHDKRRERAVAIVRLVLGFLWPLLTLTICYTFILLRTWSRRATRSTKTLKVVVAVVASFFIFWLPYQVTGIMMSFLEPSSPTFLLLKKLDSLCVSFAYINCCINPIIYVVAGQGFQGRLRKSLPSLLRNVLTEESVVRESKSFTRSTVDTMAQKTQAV

P2RY1 = P2RY1 (Homo sapiens, UniProt P47900); experiment: gpcrMAX PathHunter beta-arrestin
LE:HL-60(TB) = system: LE:HL-60(TB); parameters: method as in earlier work; details: NCI-60 panel; ref [4],[5],[6],[7]; cited from earlier work
BDKRB1 = BDKRB1 (Homo sapiens, UniProt P46663); experiment: gpcrMAX PathHunter beta-arrestin
CNS:U251 = system: CNS:U251; parameters: method as in earlier work; details: NCI-60 panel; ref [4],[5],[6],[7]; cited from earlier work
RE:CAKI-1 = system: RE:CAKI-1; parameters: method as in earlier work; details: NCI-60 panel; ref [4],[5],[6],[7]; cited from earlier work
SCTR = SCTR (Homo sapiens, UniProt P47872); experiment: gpcrMAX PathHunter beta-arrestin
OV:SK-OV-3 = system: OV:SK-OV-3; parameters: method as in earlier work; details: NCI-60 panel; ref [4],[5],[6],[7]; cited from earlier work
GPR119 = GPR119 (Homo sapiens, UniProt Q8TDV5); experiment: gpcrMAX PathHunter beta-arrestin
Sequence of GPR119 (Q8TDV5 whole entry): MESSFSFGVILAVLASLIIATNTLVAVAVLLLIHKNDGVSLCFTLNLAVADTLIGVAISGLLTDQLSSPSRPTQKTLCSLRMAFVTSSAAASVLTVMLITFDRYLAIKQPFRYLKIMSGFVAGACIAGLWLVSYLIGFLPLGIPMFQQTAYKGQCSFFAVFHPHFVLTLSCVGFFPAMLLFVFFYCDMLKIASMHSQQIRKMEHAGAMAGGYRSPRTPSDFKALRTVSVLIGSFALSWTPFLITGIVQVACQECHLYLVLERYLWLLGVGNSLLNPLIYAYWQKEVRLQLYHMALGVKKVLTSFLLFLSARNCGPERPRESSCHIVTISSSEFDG
RE:SN12C = system: RE:SN12C; parameters: method as in earlier work; details: NCI-60 panel; ref [4],[5],[6],[7]; cited from earlier work
TACR2 = TACR2 (Homo sapiens, UniProt P21452); experiment: gpcrMAX PathHunter beta-arrestin
Sequence of TACR2 (P21452 whole entry): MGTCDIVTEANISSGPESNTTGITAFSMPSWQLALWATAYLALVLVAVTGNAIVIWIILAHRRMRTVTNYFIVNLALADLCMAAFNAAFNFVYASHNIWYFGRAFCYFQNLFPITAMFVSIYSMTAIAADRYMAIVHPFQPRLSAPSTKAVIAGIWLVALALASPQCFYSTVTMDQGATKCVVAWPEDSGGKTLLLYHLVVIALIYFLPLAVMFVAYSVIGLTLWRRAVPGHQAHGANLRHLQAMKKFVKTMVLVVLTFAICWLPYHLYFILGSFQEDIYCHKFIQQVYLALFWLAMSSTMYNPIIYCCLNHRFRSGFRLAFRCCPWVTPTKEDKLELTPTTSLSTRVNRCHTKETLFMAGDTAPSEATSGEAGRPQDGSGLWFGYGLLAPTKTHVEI

SSTR2 = SSTR2 (Homo sapiens, UniProt P30874); experiment: gpcrMAX PathHunter beta-arrestin
Sequence of SSTR2 (P30874 whole entry): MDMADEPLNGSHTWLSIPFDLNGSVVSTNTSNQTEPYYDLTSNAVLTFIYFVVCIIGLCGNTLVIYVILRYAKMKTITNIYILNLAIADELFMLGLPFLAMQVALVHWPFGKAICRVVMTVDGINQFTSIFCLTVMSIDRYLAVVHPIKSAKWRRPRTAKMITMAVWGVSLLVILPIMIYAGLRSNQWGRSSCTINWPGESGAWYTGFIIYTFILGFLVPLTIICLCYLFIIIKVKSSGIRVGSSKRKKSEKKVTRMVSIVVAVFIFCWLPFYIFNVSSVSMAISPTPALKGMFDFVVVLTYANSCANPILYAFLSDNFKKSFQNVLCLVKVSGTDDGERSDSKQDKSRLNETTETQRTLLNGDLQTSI
OV:OVCAR-4 = system: OV:OVCAR-4; parameters: method as in earlier work; details: NCI-60 panel; ref [4],[5],[6],[7]; cited from earlier work
GPR109B = GPR109B (Homo sapiens, UniProt P49019); experiment: gpcrMAX PathHunter beta-arrestin
DRD2L = DRD2L (Homo sapiens, UniProt P14416); experiment: gpcrMAX PathHunter beta-arrestin
Sequence of DRD2L (P14416 whole entry): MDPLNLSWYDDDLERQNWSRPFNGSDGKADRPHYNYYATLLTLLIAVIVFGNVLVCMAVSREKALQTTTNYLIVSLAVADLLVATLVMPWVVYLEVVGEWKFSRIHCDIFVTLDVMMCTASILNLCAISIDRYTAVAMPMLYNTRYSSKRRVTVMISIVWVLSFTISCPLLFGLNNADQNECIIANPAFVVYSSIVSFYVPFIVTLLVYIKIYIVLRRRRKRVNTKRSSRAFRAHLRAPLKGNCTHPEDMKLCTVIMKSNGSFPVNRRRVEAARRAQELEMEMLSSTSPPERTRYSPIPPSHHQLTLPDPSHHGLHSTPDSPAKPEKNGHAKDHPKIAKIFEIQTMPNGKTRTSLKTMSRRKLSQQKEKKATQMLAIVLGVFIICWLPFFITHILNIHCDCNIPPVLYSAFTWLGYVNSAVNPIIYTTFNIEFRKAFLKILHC

CCR1 = CCR1 (Homo sapiens, UniProt P32246); experiment: gpcrMAX PathHunter beta-arrestin
CNR2 = CNR2 (Homo sapiens, UniProt P34972); experiment: gpcrMAX PathHunter beta-arrestin

SMILES: Cc1c(Cl)cccc1NC(=O)c1sc2nc3c(cc2c1N)C(=O)CCC3 [Compound 1]
- GI50 (RE:A498): 23.2 nM
- GI50 (LC:HOP-92): 47.9 nM
- GI50 (CNS:SNB-19): 70.1 nM
- inhibition at 10 µM (CCR10): -49%
- inhibition at 10 µM (GIPR): 2%
- inhibition at 10 µM (CX3CR1): 11%
- inhibition at 10 µM (FPR1): 16%
- inhibition at 10 µM (UTR2): 10%
- inhibition at 10 µM (GPR109A): -13%
- inhibition at 10 µM (CCR5): 11%
- inhibition at 10 µM (NPY2R): -9%
- GI50 (CO:HCC-2998): 213 nM
- GI50 (LC:NCI-H23): 169 nM
- inhibition at 10 µM (CALCRL-RAMP2): -23%
- GI50 (CNS:SF-268): 238 nM
- inhibition at 10 µM (DRD3): 20%
- inhibition at 10 µM (ADRA1B): 11%
- GI50 (CO:HT29): 49 nM
- inhibition at 10 µM (MLNR): -18%
- inhibition at 10 µM (NMBR): 28%
- inhibition at 10 µM (OPRL1): -7%
- inhibition at 10 µM (DRD1): 12%
- inhibition at 10 µM (GALR2): -5%
- inhibition at 10 µM (EDG4): 7%
- inhibition at 10 µM (C5AR1): 2%
- inhibition at 10 µM (P2RY1): 24%
- GI50 (LE:HL-60(TB)): 103 nM
- inhibition at 10 µM (BDKRB1): -9%
- GI50 (CNS:U251): 96.2 nM
- GI50 (RE:CAKI-1): 46.1 nM
- inhibition at 10 µM (SCTR): 13%
- GI50 (OV:SK-OV-3): 60.6 nM
- inhibition at 10 µM (GPR119): 23%
- GI50 (RE:SN12C): 142 nM
- inhibition at 10 µM (TACR2): 14%
- inhibition at 10 µM (SSTR2): 9%
- GI50 (OV:OVCAR-4): 604 nM
- inhibition at 10 µM (GPR109B): 7%
- inhibition at 10 µM (DRD2L): -1%
- inhibition at 10 µM (CCR1): -10%
- inhibition at 10 µM (CNR2): 16%
